Assays:
[1] = molecular target: T1, S100A9 binding to TLR4/MD2 (Homo sapiens, UniProt P06702); assay: Surface plasmon resonance (Biacore 3000): inhibition of S100A9 binding to immobilized TLR4; conditions: 50 nM recombinant human S100A9 over immobilized TLR4; response at late dissociation phase
T1 sequence (P06702 1-114): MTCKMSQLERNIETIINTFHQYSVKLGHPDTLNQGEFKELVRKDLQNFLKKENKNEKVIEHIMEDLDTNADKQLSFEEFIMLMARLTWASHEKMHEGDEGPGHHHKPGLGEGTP
From the text: (a) The molecular structure of ABR-238901. (b-c) Surface plasmon resonance measurement of S100A9 binding to immobilized RAGE (b) and TLR4 (c) in the presence of increasing ABR-238901 concentrations. The magnitude of the response for each ABR-238901 concentration (BABR-238901), measured at the late dissociation phase (t 350s), was expressed as percentage of the response in the absence of competitor (BO), and plotted against the concentration of ABR-238901.
Inhibition of S100A9 binding to RAGE and TLR4/MD2 by ABR-238901 was tested by surface plasmon resonance in a Biacore 3000 system (GE Healthcare, Uppsala, Sweden). Briefly, 50 nM of recombinant human S100A9 was injected over immobilized RAGE and TLR4 (2 min at 30 μL/min) in the presence of increasing concentrations of ABR-238901, ranging from 0.0488 to 100 μM. The magnitude of the responses measured at the late dissociation phase (t 350 s) in the presence of ABR-238901 (BABR-238901) were expressed as percentage of response in the absence of competitor (Bo), and plotted against the concentration of ABR-238901 (FIG. 7b-c). The curves were fit to a sigmoidal dose-response model with variable slope in Prism GraphPad for calculation of IC50.

[2] = test system: C57BL/6 mice with permanent coronary artery ligation; assay: MI by permanent coronary artery ligation, long-term (21 days) treatment: echocardiography and scar size; assay type: in vivo, mouse; conditions: treatment for 21 days
Description: Ultrasound measurements were performed at day −1 (baseline), 7, and 21 to assess cardiac function using a Vevo 770 echocardiographic imaging system with a 707B probe (VisualSonics, Toronto, Canada). In selected experiments, additional assessment was performed on days 3 and 14. The mice were anesthetized using 1-3% isoflurane and hair was carefully removed using depilatory cream. To maintain body temperature, the mice were placed in supine position on a heated surface (37° C.). Two-dimensional M-mode images were recorded in the parasternal short-axis view at the mid-papillary level. Five complete cardiac cycles were traced to calculate fractional shortening, ejection fraction, left ventricular systolic volume, and left ventricular diastolic volume by using the VisualSonics software.
At 21 days after MI, the hearts were perfused with ice cold PBS and excised under ketamine/xylazine anesthesia. Subsequently the hearts were fixed in 4% (w/v) paraformaldehyde and embedded in paraffin. The hearts were sectioned transversely from the apex to the level of the suture, and 6 μm thick sections were collected at 390 μm intervals. The sections were mounted on glass slides and stained with Van Gieson or Masson trichrome stain for quantitative analysis of scar size. Alarmin S100A8/A9 was detected using mouse anti-S100A8/A9 IgG1 antibody (Abcam, ab 130234, 1:100 dilution, O/N 4° C.). Goat anti-mouse IgG1 HRP-conjugated secondary antibody (Abcam, ab 97240, 1 h RT) was used and the staining was developed with ImmPACT™ DAB (Vector, SK-4105) chromogen as substrate. The slides were subsequently scanned using an Aperio digital pathology slide scanner (Leica Biosystems), and images were captured with the ImageScope software (Leica Biosystems). Left ventricle area and the infarcted area were measured on each section by using the BioPix iQ 2.5.0 software (Biopix AB). The size of the post-MI myocardial scar was expressed as percentage of the left ventricle volume below the coronary ligature.
MI induction and other procedures were carried out as outlined in Example 2. For long-term experiments of up to 21 days, a daily dose of 30 mg/Kg ABR-238901 was diluted in PBS and administered by daily i.p. injections for the first 3 days post-MI until the mice recovered and started to drink normally, and thereafter p.o. ad-libitum in meglumine buffer (FIG. 4A). Adequate treatment dosage was ensured by closely monitoring daily fluid intake.

[3] = test system: Nur77 response elements NBRE and NurRE in RAW264.7 macrophages; assay: Nur77 activity luciferase reporter assay in RAW264.7 macrophages stimulated with S100A9; assay type: cell-based, mouse; conditions: S100A9 20 μg/mL, ABR-238901 100 μM, 16 hours
Description: Low-passage RAW264.7 mouse macrophages (ATCC #TIB-71) were seeded at 125.000 cells/mL in DMEM medium containing 2 mM L-glutamine (Gibco), 10% Fetal Calf Serum (Gibco), and 1% penicillin/streptomycin (Invitrogen). The next day, cells were transfected with pXP1-NurRE-fluc or pGL2-4xNBRE-fluc firefly luciferase Nur77 reporter constructs using Lipofectamine LTX with PLUS reagent (Invitrogen) according to manufacturer's instructions. pRluc-N3, which constitutively expresses Renilla luciferase from the CMV promoter, was co-transfected as an internal control to verify transfection efficiency. Extracellular S100A9 (20 μg/mL) was incubated in the presence of 10 μM ZnCl2 (Sigma) for 15 minutes with or without 100 μM of ABR-238901, and added to the cells 4 hours after transfection. After 16 hours of stimulation, the cells were washed and firefly and Renilla luciferase activities were determined using the Dual-Luciferase Reporter Assay System and a GloMax luminescent plate reader (both Promega).

[4] = test system: BALB/c mice with induced myocarditis; assay: Myocarditis induced by cardiac α-myosin peptide: echocardiography; assay type: in vivo, mouse; conditions: 30 mg/kg/day orally from day 7
Description: Female BALB/c mice, 8 weeks of age, were purchased from Taconic and housed under 12 h:12 h light:dark cycles with access to food and water ad libitum. To induce myocarditis, all mice were injected subcutaneously (s.c.) with 100 μg murine cardiac a-myosin heavy chain peptide (Ac-RSLKLMATLFSTYASADR-OH, Anaspec) emulsified 1:1 in complete Freund's adjuvant containing 1 mg/mL heat-killed Mycobacterium tuberculosis H37Ra (Sigma-Aldrich), on days 0 and 7 (FIG. 17A). ABR-238901 was administered orally ad-libitum diluted in meglumine buffer (to prevent precipitation in the drinking bottle during the course of the experiment) at a dose of 30 mg/kg/day, starting on day 7 and throughout the course of the experiment (n=9 mice). Fluid intake was closely monitored during the experiment to ensure an appropriate drug dosage. Mice with induced myocarditis drinking meglumine buffer alone ad-libitum were used as controls (n=12 mice). Mice received daily attendance to ensure their well-being. All mouse studies were approved by the Animal Research Ethics Committee of Lund University.
Transthoracic echocardiography was performed as described under Example 7. Cardiac function was evaluated by echocardiography at baseline and at 21, 28 and 35 days after the first injection of murine cardiac a-myosin heavy chain peptide.

With COc1ncc(S(=O)(=O)Nc2cncc(Cl)c2O)cc1Br [ABR-238901, 5-bromo-N-(5-chloro-4-hydroxypyridin-3-yl)-6-methoxypyridine-3-sulfonamide] the IC50 [1] was 2100 nM, the “Cardiac function (left ventricular ejection fraction)” value ([2]; 30 mg/Kg i.p. 3 days then p.o., echocardiography) was “progressive deterioration” and the “Size of the myocardial scar” value ([2]; 21 days) was “increased”. For the same molecule, the EDV vs controls ([2]; day 21) was “increased”, the ESV vs controls ([2]; day 21) was “increased” and the “S100A9-induced increase of Nur77 activity (NBRE and NurRE luciferase reporters)” value [3] was “inhibited”. For the same molecule, the Cardiac output ([4]; day 28) was 11.26 mL/min, the “Left ventricular ejection fraction (LVEF)” value ([4]; day 28) was 52% and the Cardiac output ([4]; day 35) was 12.03 mL/min. The “Left ventricular ejection fraction (LVEF)” value ([4]; day 35) was 53%.

— US20220378763A1, “COMPOUND FOR TREATMENT OF ACUTE INFLAMMATION IN THE MYOCARDIUM” (CALPROTECT AB, priority 2019, published 2022)
